Assay results from patent publication EP2326328B1, “USE OF DIHYDRALAZINE FOR THE TREATMENT OF DISEASES RELATED TO ELEVATED SEMICARBAZIDE SENSITIVE AMINE-OXIDASE (SSAO) ACTIVITY” (Semmelweis Egyetem, priority 2008, dated 2010).

Legend:
[1] = target: T1, SSAO (Homo sapiens, UniProt Q16853); experiment: serum SSAO activity of treated type 2 diabetic patients; assay type: in vivo; conditions: for SSAO activity (pmol/mg protein/hour): serum, oral 14.5 mg dihydralazine sulphate twice daily
T1 construct: from tissue; host or cells: human serum
T1 sequence (Q16853 29-763 limits assumed): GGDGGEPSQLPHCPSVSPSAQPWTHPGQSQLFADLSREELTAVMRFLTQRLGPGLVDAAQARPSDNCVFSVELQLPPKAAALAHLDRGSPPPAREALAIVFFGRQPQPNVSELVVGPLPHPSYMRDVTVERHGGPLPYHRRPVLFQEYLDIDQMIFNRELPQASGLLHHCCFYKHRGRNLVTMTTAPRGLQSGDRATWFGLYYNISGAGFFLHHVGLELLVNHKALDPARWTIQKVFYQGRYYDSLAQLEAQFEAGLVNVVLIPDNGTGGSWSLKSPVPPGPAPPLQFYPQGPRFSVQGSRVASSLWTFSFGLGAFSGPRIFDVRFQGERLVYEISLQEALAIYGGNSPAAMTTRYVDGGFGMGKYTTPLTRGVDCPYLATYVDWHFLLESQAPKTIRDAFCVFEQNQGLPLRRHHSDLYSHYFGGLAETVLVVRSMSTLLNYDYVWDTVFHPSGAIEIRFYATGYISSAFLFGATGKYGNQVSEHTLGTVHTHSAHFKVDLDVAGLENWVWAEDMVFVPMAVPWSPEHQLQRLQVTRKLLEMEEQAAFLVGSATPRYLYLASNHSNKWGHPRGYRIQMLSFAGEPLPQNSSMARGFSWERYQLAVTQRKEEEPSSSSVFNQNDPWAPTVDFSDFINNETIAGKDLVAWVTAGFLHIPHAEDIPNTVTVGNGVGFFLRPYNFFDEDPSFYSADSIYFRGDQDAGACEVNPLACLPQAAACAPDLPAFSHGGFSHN
Method: A radiochemical procedure (Yu P.H., Zuo D.M., Biochem. Pharmacol., 1992, 43, 307-312) was adapted for determining SSAO activities in the human serum. It is based on the determination of the quantity of ^14C-benzaldehyde formed by the enzyme reaction of ^14C-benzylamine.
The preparations containing the serum and the dihydralazine enzyme inhibitor were pre-incubated at room temperature for 20 min. The enzyme reaction was started with ^14C-benzylamine substrate (- 200000 dpm/tube). The samples obtained accordingly were incubated at 37°C for 40 min, then the reaction was stopped by adding 200 µl 2M citric acid solution. In case of the 'blank' sample, citric acid solution was added before adding the substrate, therefore, in this case no enzyme reaction took place. The samples were extracted with 1000 µl 1:1 toluene - ethyl acetate mixture, by vortex method, then centrifuged (2500 g / 5 min). The enzyme activity was determined by liquid scintillation counting (600 µl supernatant + 5ml Aquasafe), using the formula below: ([dpm(sample)-dpm0ʹ] x 1.6 x 10 x 1.5)/(measured substrate activity dpm x mg protein) [formula] standing for: 1.6: extraction volume; 10: molar activity; 1.5: correction factor for the incubation time; dpm: disintegrations per minute (unit of radioactivity)
(§1) After giving their informed consent, patients participating in the study were treated for 56 days taking ½ tablet twice daily of a pharmaceutical composition containing 28.9 mg dihydralazine sulphate (i.e. the ½ tablet contained 14.5 mg dihydralazine sulphate).
Serum SSAO activity was determined from blood samples collected before starting the treatment, and at the 14., 28. and 56. day of the treatment. The blood samples were centrifuged and the supernatant was stored at - 80°C until the measurement of the enzyme activity. SSAO activity was determined applying the method described in the example above.

[2] = test system: macular edema; experiment: macular edema of type 2 diabetic patients, retinal thickness by optical coherency tomography (OCT); assay type: in vivo, human; set-up: OCT CPT (center point thickness): unit not given beside the values; conditions: for OCT CPT (center point thickness) / OCT CST (central subfield thickness): oral 14.5 mg dihydralazine sulphate twice daily
Method: The effect of orally administered low dose dihydralazine on macular edema and serum SSAO activity was studied in type 2 diabetic patients in an early stage of macular edema formation.
as §1
(§2) To measure the efficacy and monitor the safety of the treatment, the following examinations were carried out before starting the treatment and at the 1., 7., 14., 28. and 56. day of the treatment: • 1. ocular examinations: visual acuity (ETDRS chart), slit-lamp examination, measurement of intraocular pressure with applanation tonometry, fundus biomicroscopy with pupil dilation, digital fundus photography. The grade of macular edema was determined via measuring retinal thickness with optical coherency tomography (OCT). • 2. internal medicine examinations: anamnesis, physical examinations, blood pressure, pulse, urine examination. • 3. laboratory examinations: blood glucose, HbA1c, liver function, kidney function, microalbuminuria, metabolic panel of the blood , lipids, CRP.
(§3) In the table the following abbreviations were used: • BMI: body mass index - weight (kg) / height (m^2) • RRsyst: blood pressure (systolic) (Hgmm) • RRdiast: blood pressure (diastolic) (Hgmm) • OCT CST (central subfield thickness): the average thickness of the central 1-mm area of the macula • OCT CPT (center point thickness): the thickness of the center point of the retina; normally that is the thinnest point of the macula Table 4.

[3] = blood pressure and pulse of treated type 2 diabetic patients; assay type: in vivo, human; conditions: oral 14.5 mg dihydralazine sulphate twice daily; for RRsyst: blood pressure (systolic): before treatment 153
Method: as §1, §2, §3

[4] = 2 treated type 2 diabetic patients, oral 14.5 mg dihydralazine sulphate twice daily for 56 days

In the case of `NNc1nnc(NN)c2ccccc12` [dihydralazine], the “serum SSAO activity” value [1, 4] is reported as “parallel decrease of serum SSAO activity”, the “SSAO activity (pmol/mg protein/hour)” value ([1]; 1. patient, 14. day, before treatment 93.02) is reported as 62.42 pmol/mg protein/hour and the “SSAO activity (pmol/mg protein/hour)” value ([1]; 1. patient, 28. day, before treatment 93.02) is reported as 85.73 pmol/mg protein/hour. For the same compound, the “SSAO activity (pmol/mg protein/hour)” value ([1]; 1. patient, 56. day, before treatment 93.02) was 82.41 pmol/mg protein/hour, the “SSAO activity (pmol/mg protein/hour)” value ([1]; 2. patient, 14. day, before treatment 167.56) was 127.96 pmol/mg protein/hour and the “SSAO activity (pmol/mg protein/hour)” value ([1]; 2. patient, 28. day, before treatment 167.56) was 186.36 pmol/mg protein/hour. The “SSAO activity (pmol/mg protein/hour)” value ([1]; 2. patient, 56. day, before treatment 167.56) was 105.1 pmol/mg protein/hour, the “OCT CPT (center point thickness)” value ([2]; 1. patient, 14. day, before treatment 272) was 215 and the “OCT CST (central subfield thickness)” value ([2]; 1. patient, 14. day, before treatment 298) was 266. For the same compound, the “OCT CPT (center point thickness)” value ([2]; 1. patient, 28. day, before treatment 272) was 219, the “OCT CST (central subfield thickness)” value ([2]; 1. patient, 28. day, before treatment 298) was 273 and the “OCT CPT (center point thickness)” value ([2]; 1. patient, 56. day, before treatment 272) was 209. The “OCT CST (central subfield thickness)” value ([2]; 1. patient, 56. day, before treatment 298) was 265, the “OCT CPT (center point thickness)” value ([2]; 2. patient, 14. day, before treatment 257) was 319 and the “OCT CST (central subfield thickness)” value ([2]; 2. patient, 14. day, before treatment 302) was 323. The “OCT CPT (center point thickness)” value ([2]; 2. patient, 28. day, before treatment 257) was 239, the “OCT CST (central subfield thickness)” value ([2]; 2. patient, 28. day, before treatment 302) was 286 and the “OCT CPT (center point thickness)” value ([2]; 2. patient, 56. day, before treatment 257) was 201. The “OCT CST (central subfield thickness)” value ([2]; 2. patient, 56. day, before treatment 302) was 252, the macular edema [2, 4] was “significant decrease of the macular edema was observed in the fovea” and the pulse ([3]; 1. patient, 14. day, before treatment 60) was 69 beats/min. For the same compound, the “RRdiast: blood pressure (diastolic)” value ([3]; 1. patient, 14. day, before treatment 63) was 70 Hgmm, the “RRsyst: blood pressure (systolic)” value ([3]; 1. patient, 14. day) was 154 Hgmm and the pulse ([3]; 1. patient, 28. day, before treatment 60) was 69 beats/min. For the same compound, the “RRdiast: blood pressure (diastolic)” value ([3]; 1. patient, 28. day, before treatment 63) was 68 Hgmm, the “RRsyst: blood pressure (systolic)” value ([3]; 1. patient, 28. day) was 152 Hgmm and the pulse ([3]; 1. patient, 56. day, before treatment 60) was 60 beats/min. The “RRdiast: blood pressure (diastolic)” value ([3]; 1. patient, 56. day, before treatment 63) was 67 Hgmm, the “RRsyst: blood pressure (systolic)” value ([3]; 1. patient, 56. day) was 161 Hgmm and the “RRdiast: blood pressure (diastolic)” value ([3]; 2. patient, 14. day, before treatment 76) was 65 Hgmm. The pulse ([3]; 2. patient, 14. day, before treatment 79) was 89 beats/min, the “RRsyst: blood pressure (systolic)” value ([3]; 2. patient, 14. day) was 150 Hgmm and the “RRdiast: blood pressure (diastolic)” value ([3]; 2. patient, 28. day, before treatment 76) was 74 Hgmm. For the same compound, the pulse ([3]; 2. patient, 28. day, before treatment 79) was 93 beats/min, the “RRsyst: blood pressure (systolic)” value ([3]; 2. patient, 28. day) was 158 Hgmm and the “RRdiast: blood pressure (diastolic)” value ([3]; 2. patient, 56. day, before treatment 76) was 64 Hgmm. For the same compound, the pulse ([3]; 2. patient, 56. day, before treatment 79) was 77 beats/min, the “RRsyst: blood pressure (systolic)” value ([3]; 2. patient, 56. day) was 126 Hgmm and the blood pressure ([3]; type 2 diabetic patients) was “did not cause significant change of blood pressure”.
